Test results taken from paper PMC8260761, “A bacteriocin-based treatment option for Staphylococcus haemolyticus biofilms” (Scientific Reports, 2021).
Like-named read-outs stand apart in the source and are kept apart here. Where no end group is shown, it is not given here.

Tests used:
[1] = tested on: planktonic S. haemolyticus; assay type: cell-based, Staphylococcus haemolyticus
Method: Synergistic interactions between antimicrobials were determined using the fractional inhibition concentration (FIC) as previously described. The FIC values were determined using a mirotiterplate checkerboard assay. Briefly, antimirobial A was applied in wells A1–H1 then diluted two-fold in wells 2–12. In a second microtiter plate, antimicrobial B was applied in wells A1–A12, then diluted two folds in wells B–H. Fifty μl of the serial diluted antimirobial A was transferred to the wells of a third microtiter plate, except for wells H1–H12. Similarly, 50 μl of the serial diluted antimicrobial B was transferred to the same microtiter plate, except for wells A1–A12. Wells H1-12 and wells A1-12 contained only one of the antimicrobials and was used to estimate the MIC value of the pure substance. After combining the antimicrobials, 100 μl of a 1:25 diluted O/N of S. haemolyticus was transferred to each well of the third microplate, while 50 μl of medium was added to wells H1-12 and A1-12. […] FIC values were calculated as follows: FIC = FICa + FICb + FICc, where the FICa means MIC of A in combination/MIC of A alone, FICb means MIC of B in combination/MIC of B, and FICc means MIC of C in combination/MIC of C alone. Effects were considered as synergistic if FIC was ≤ 0.5 for two components mixture[81] and ≤ 0.75 for three components mixture.

[2] = tested on: Staphylococcus haemolyticus strains; test: Spot-on-lawn inhibition assay; assay type: cell-based; conditions: six S. haemolyticus strains 4068–4073; 0.04, 0.2 and 1.0 mg/ml, 5 µl spotted
Method: (§1) A semi-quantitative spot-on-lawn inhibitory assay was performed on 51 bacterial indicator strains (Table S1) to determine the bacteriocins inhibition spectra. Overnight cultures were diluted 1:100 in BHI soft agar and distributed on BHI agar plates. Once solidified, bacteriocins with various concentrations were applied on designated spots. The plates were incubated at appropriate temperature O/N and inhibition zones were measured the following day. To determine minimal inhibitory concentration (MIC50) of H1 against clinical S. haemolyticus isolates (Table S2), as well as strains heterologously expressing RseP (Table S4), the microtiterplate antimicrobial assay was performed as previously described[41],[79]. MIC50 was defined as the minimal bacteriocin concentration needs to inhibit the growth of a bacterial strain by at least 50%.

[3] = tested on: clinical and commensial S. haemolyticus isolates; assay type: cell-based, Staphylococcus haemolyticus; conditions: 5 h
Method: as §1

[4] = tested on: L. plantarum WCFS1 strains (with or without S. haemolyticus RseP); assay type: cell-based, Lactobacillus plantarum
Method: as §1
rseP (Uniprot: Q4L5W4) derived from S. haemolyticus 7067_4_21 was heterologously expressed in the naturally H1-resistant L. plantarum WCFS1[36] using the vector pSIP expression system[84],[85]. First, pLp1261_InvS, a pSIP401 derivative[84],[86], was linearized using FastDigest Restrictiction Enzymes NdeI and Acc65I (ThermoFisher Scientific) to isolate the vector part. Second, rseP was amplified by PCR using specially designed In-Fusion Primes (Table S6), giving amplicons with complementary ends to the linearized vector. The In-Fusion HD cloning Kit (Takara Bio) was used to fuse rseP into the linearized vector, yielding pSIP401_SHRseP. The plasmid was subsequently transformed to E.coli TOP10 (ThermoFischer Scientific). Plasmid DNA from E. coli was isolated using NucleoSpin Plasmid Kit (Macherey–Nagel). The DNA sequence of all PCR amplified fragments was verified by sequencing at Eurofins GATC, Germany, and before being electroporated into L. plantarum WCSF1 following the procedure described by Aukrust and Blom[87].

[5] = S. haemolyticus 4068, planktonic cells, 5 h exposure
[6] = S. haemolyticus 4068, planktonic cells, 24 h exposure
[7] = S. haemolyticus 4068, planktonic cells, 48 h exposure
[8] = S. haemolyticus 4069, planktonic cells, 5 h exposure
[9] = S. haemolyticus 4069, planktonic cells, 24 h exposure
[10] = S. haemolyticus 4069, planktonic cells, 48 h exposure
[11] = S. haemolyticus 4070, planktonic cells, 5 h exposure
[12] = S. haemolyticus 4070, planktonic cells, 24 h exposure
[13] = S. haemolyticus 4070, planktonic cells, 48 h exposure
[14] = S. haemolyticus 4071, planktonic cells, 5 h exposure
[15] = S. haemolyticus 4071, planktonic cells, 24 h exposure
[16] = S. haemolyticus 4071, planktonic cells, 48 h exposure
[17] = S. haemolyticus 4072, planktonic cells, 5 h exposure
[18] = S. haemolyticus 4072, planktonic cells, 24 h exposure
[19] = S. haemolyticus 4072, planktonic cells, 48 h exposure
[20] = S. haemolyticus 4073, planktonic cells, 5 h exposure
[21] = S. haemolyticus 4073, planktonic cells, 24 h exposure
[22] = S. haemolyticus 4073, planktonic cells, 48 h exposure

garvicin KS [GarKS]
MIC, individual component [1, 5]: 6.5 µg/mL | MIC, individual component [1, 6]: 24 µg/mL | MIC, individual component [1, 7]: 25 µg/mL | MIC, individual component [1, 8]: 3.3 µg/mL | MIC, individual component [1, 9]: 13 µg/mL | MIC, individual component [1, 10]: 26 µg/mL | MIC, individual component [1, 11]: 12 µg/mL | MIC, individual component [1, 12]: 48 µg/mL | MIC, individual component [1, 13]: 51 µg/mL | MIC, individual component [1, 14]: 12.5 µg/mL | MIC, individual component [1, 15]: 51 µg/mL | MIC, individual component [1, 16]: 100 µg/mL | MIC, individual component [1, 17]: 23.6 µg/mL | MIC, individual component [1, 18]: 49 µg/mL | MIC, individual component [1, 19]: 52 µg/mL | MIC, individual component [1, 20]: 12.5 µg/mL | MIC, individual component [1, 21]: 51 µg/mL | MIC, individual component [1, 22]: 51 µg/mL | Inhibition zones at three concentrations [2]: some inhibition was seen only at the highest concentration

MKFKFNPTGTIVKKLTQYEINWYKQQYGRYPWERPVA [H1]
MIC50 against the different S. haemolyticus strains [3]: 100 to 780 µg/mL | Minimal inhibitory concentration (MIC) ([4]; L. plantarum WCFS1): > 50 µg/mL | Minimal inhibitory concentration (MIC) ([4]; L. plantarum WCFS1/pEV, expressing empty vector): > 50 µg/mL | Minimal inhibitory concentration (MIC) ([4]; L. plantarum WCFS1/pSIP401_SHRseP, expressing RseP from S. haemolyticus 7067_4_21): 0.39 µg/mL | MIC50 over the tested strains ([1]; planktonic, 5 h): 0.78 µg/mL | MIC, individual component ([1]; planktonic, 24 h): 0.78 µg/mL

SCTTCVCTCSCCTT [MP1, micrococcin P1]
MIC, individual component [1, 5]: 0.02 µg/mL | MIC, individual component [1, 6]: 0.023 µg/mL | MIC, individual component [1, 7]: 0.078 µg/mL | MIC, individual component [1, 8]: 0.15 µg/mL | MIC, individual component [1, 9]: > 10 µg/mL | MIC, individual component [1, 10]: > 10 µg/mL | MIC, individual component [1, 11]: 0.02 µg/mL | MIC, individual component [1, 12]: 0.33 µg/mL | MIC, individual component [1, 13]: 0.13 µg/mL | MIC, individual component [1, 14]: 0.043 µg/mL | MIC, individual component [1, 15]: > 10 µg/mL | MIC, individual component [1, 16]: > 10 µg/mL | MIC, individual component [1, 17]: 0.039 µg/mL | MIC, individual component [1, 18]: > 10 µg/mL | MIC, individual component [1, 19]: 0.63 µg/mL | MIC, individual component [1, 20]: 0.022 µg/mL | MIC, individual component [1, 21]: 0.072 µg/mL | MIC, individual component [1, 22]: 0.14 µg/mL | Inhibition zones at three concentrations [2]: clear inhibition zones at all three concentrations
